From the supplement of paper PMC11061612

How the values were obtained:
Test in all cases: combination Emax (second highest fraction inhibited in the dose matrix, 72 h); higher = more inhibition; extreme values may be limits of the assay
A375 (Melanoma) = system: A375 (Melanoma)
Summary of the method: (§1)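 Cell lines in DMEM/F12 or RPMI with 10% FBS were plated in 1536-well plates, held 24 hours at 37°C, 5% CO2, then given two-drug dose matrices for 72 hours (DMSO typically 0.2%). Viability was read by CellTiter-Glo 2.0 luminescence and scaled as inhibition from 0 (vehicle wells) to 1 (blank wells). Combination Emax is the second-highest inhibition in the matrix; Bliss excess is observed combination effect minus expected EA + EB − EA·EB, EA and EB being single-agent effects.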

[1] = system: ATN-1 (T-Lymphoblastic Leukemia)
Summary of the method: as §1

[2] = system: BT-474 (Breast Carcinoma)
Summary of the method: as §1

[3] = system: COR-L105 (Lung Adenocarcinoma)
Summary of the method: as §1

[4] = system: Daudi (Burkitt's Lymphoma)
Summary of the method: as §1

[5] = system: GRANTA-519 (B-Cell Non-Hodgkin's Lymphoma)
Summary of the method: as §1

[6] = system: HT-1197 (Bladder Carcinoma)
Summary of the method: as §1

[7] = system: IGROV-1 (Ovarian Carcinoma)
Summary of the method: as §1

[8] = system: JJN-3 (Plasma Cell Myeloma)
Summary of the method: as §1

[9] = system: JURL-MK1 (Chronic Myelogenous Leukemia)
Summary of the method: as §1

MG-63 (Osteosarcoma) = system: MG-63 (Osteosarcoma)
Summary of the method: as §1

[10] = system: NCI-H2009 (Lung Adenocarcinoma)
Summary of the method: as §1

[11] = system: NCI-H2170 (Squamous Cell Lung Carcinoma)
Summary of the method: as §1

NCI-H2452 (Mesothelioma) = system: NCI-H2452 (Mesothelioma)
Summary of the method: as §1

[12] = system: OCI-M1 (Acute Myeloid Leukemia)
Summary of the method: as §1

[13] = system: RPMI-8402 (T-Lymphoblastic Leukemia)
Summary of the method: as §1

[14] = system: RS4-11 (B-Lymphoblastic Leukemia)
Summary of the method: as §1

[15] = system: SBC-3 (Small Cell Lung Carcinoma)
Summary of the method: as §1

[16] = system: SNU-1 (Gastric Carcinoma)
Summary of the method: as §1

[17] = system: SUP-HD1 (Hodgkin's Lymphoma)
Summary of the method: as §1

SMILES: CCN(CCO)CCCOc1ccc2c(Nc3cc(CC(=O)Nc4cccc(F)c4)[nH]n3)ncnc2c1 [AZD2811] + C=CCn1c(=O)c2cnc(Nc3ccc(N4CCN(C)CC4)cc3)nc2n1-c1cccc(C(C)(C)O)n1 [AZD1775] (first compound max 1 µM, partner max 1 µM)
- combination Emax (A375 (Melanoma)): 0.482
- combination Emax [1]: 1
- combination Emax [2]: 0.125
- combination Emax [3]: 0.331
- combination Emax [4]: 0.786
- combination Emax [5]: 0.798
- combination Emax [6]: 0.481
- combination Emax [7]: 0.755
- combination Emax [8]: 0.694
- combination Emax [9]: 0.995
- combination Emax (MG-63 (Osteosarcoma)): 0.393
- combination Emax [10]: 0.749
- combination Emax [11]: 0.716
- combination Emax (NCI-H2452 (Mesothelioma)): 0.574
- combination Emax [12]: 0.922
- combination Emax [13]: 1
- combination Emax [14]: 0.965
- combination Emax [15]: 0.539
- combination Emax [16]: 0.675
- combination Emax [17]: 0.841

SMILES: CCN(CCO)CCCOc1ccc2c(Nc3cc(CC(=O)Nc4cccc(F)c4)[nH]n3)ncnc2c1 [AZD2811] + C[C@@H]1COCCN1C2=NC(=NC(=C2)C3(CC3)[S@](=N)(=O)C)C4=C5C=CNC5=NC=C4 [AZD6738] (first compound max 1 µM, 7x7, partner max 10 µM)
- combination Emax (A375 (Melanoma)): 0.625
- combination Emax [1]: 1
- combination Emax [2]: 0.239
- combination Emax [3]: 0.45
- combination Emax [4]: 0.851
- combination Emax [5]: 0.782
- combination Emax [6]: 0.424
- combination Emax [7]: 0.646
- combination Emax [8]: 0.566
- combination Emax [9]: 1
- combination Emax (MG-63 (Osteosarcoma)): 0.677
- combination Emax [10]: 0.431
- combination Emax [11]: 0.803
- combination Emax (NCI-H2452 (Mesothelioma)): 0.431
- combination Emax [12]: 0.969
- combination Emax [13]: 1
- combination Emax [14]: 1
- combination Emax [15]: 0.656
- combination Emax [16]: 0.73
- combination Emax [17]: 0.781

SMILES: CCN(CCO)CCCOc1ccc2c(Nc3cc(CC(=O)Nc4cccc(F)c4)[nH]n3)ncnc2c1 [AZD2811] + O=C(c1cc(Cc2n[nH]c(=O)c3ccccc23)ccc1F)N1CCN(C(=O)C2CC2)CC1 [Olaparib] (first compound max 1 µM, 7x7, partner max 10 µM)
- combination Emax (A375 (Melanoma)): 0.408
- combination Emax [1]: 0.835
- combination Emax [2]: 0.168
- combination Emax [3]: 0.231
- combination Emax [4]: 0.48
- combination Emax [5]: 0.452
- combination Emax [6]: 0.203
- combination Emax [7]: 0.303
- combination Emax [8]: 0.336
- combination Emax [9]: 0.688
- combination Emax (MG-63 (Osteosarcoma)): 0.335
- combination Emax [10]: 0.343
- combination Emax [11]: 0.623
- combination Emax (NCI-H2452 (Mesothelioma)): 0.423
- combination Emax [12]: 0.268
- combination Emax [13]: 0.85
- combination Emax [14]: 0.987
- combination Emax [15]: 0.617
- combination Emax [16]: 0.381
- combination Emax [17]: 0.718

SMILES: COc1nnc2ccc(N3CCC(c4ccc(OCCN5CCN(C)C(=O)[C@H]5C)cc4)CC3)nn12 [AZD5153] + CN(CC[C@H](CSC1=CC=CC=C1)NC2=C(C=C(C=C2)S(=O)(=O)NC(=O)C3=CC=C(C=C3)N4CCC(CC4)[C@H](C5=CC=CC=C5C6=CC=C(C=C6)Cl)O)S(=O)(=O)C(F)(F)F)CCO [AZD4320] (first compound max 1 µM, 7x7, partner max 1 µM)
- combination Emax (A375 (Melanoma)): 0.476
- combination Emax [1]: 0.718
- combination Emax [2]: 0.531
- combination Emax [4]: 0.58
- combination Emax [5]: 0.986
- combination Emax [6]: 0.845
- combination Emax [7]: 0.608
- combination Emax [8]: 0.969
- combination Emax [9]: 0.994
- combination Emax [11]: 0.838
- combination Emax [12]: 1
- combination Emax [14]: 1
- combination Emax [16]: 0.8
- combination Emax [17]: 0.988

SMILES: CS(=O)(=O)CCNCc1ccc(-c2ccc3ncnc(Nc4ccc(OCc5cccc(F)c5)c(Cl)c4)c3c2)o1 [Lapatinib] + NC1(c2ccc(-c3nc4ccn5c(=O)[nH]nc5c4cc3-c3ccccc3)cc2)CCC1 [MK-2206] (first compound max 10 µM, 7x7, partner max 10 µM)
- combination Emax (A375 (Melanoma)): 0.89
- combination Emax [3]: 0.825
- combination Emax [8]: 0.899
- combination Emax (MG-63 (Osteosarcoma)): 0.924
- combination Emax [10]: 0.431
- combination Emax (NCI-H2452 (Mesothelioma)): 0.554
- combination Emax [12]: 0.844
- combination Emax [13]: 1
- combination Emax [15]: 0.917

SMILES: CC(=O)c1c(C)c2cnc(Nc3ccc(N4CCNCC4)cn3)nc2n(C2CCCC2)c1=O [Palbociclib] + CN(CC[C@H](CSC1=CC=CC=C1)NC2=C(C=C(C=C2)S(=O)(=O)NC(=O)C3=CC=C(C=C3)N4CCC(CC4)[C@H](C5=CC=CC=C5C6=CC=C(C=C6)Cl)O)S(=O)(=O)C(F)(F)F)CCO [AZD4320] (first compound max 10 µM, 7x7, partner max 1 µM)
- combination Emax (A375 (Melanoma)): 0.373
- combination Emax [1]: 0.772
- combination Emax [2]: 0.124
- combination Emax [4]: 0.561
- combination Emax [5]: 0.903
- combination Emax [6]: 0.338
- combination Emax [7]: 0.793
- combination Emax [8]: 0.388
- combination Emax [9]: 1
- combination Emax [11]: 0.8
- combination Emax [12]: 0.994
- combination Emax [14]: 1
- combination Emax [16]: 0.831
- combination Emax [17]: 0.946

SMILES: CCc1c2c(nc3ccc(O)cc13)-c1cc3c(c(=O)n1C2)COC(=O)[C@]3(O)CC [SN-38] + O=C(c1cc(Cc2n[nH]c(=O)c3ccccc23)ccc1F)N1CCN(C(=O)C2CC2)CC1 [Olaparib] (first compound max 0.3 µM, 7x7, partner max 10 µM)
- combination Emax (A375 (Melanoma)): 0.949
- combination Emax [1]: 1
- combination Emax [3]: 0.401
- combination Emax [4]: 0.979
- combination Emax [6]: 0.35
- combination Emax [8]: 0.688
- combination Emax [9]: 1
- combination Emax (MG-63 (Osteosarcoma)): 0.896
- combination Emax [10]: 0.442
- combination Emax [11]: 0.969
- combination Emax (NCI-H2452 (Mesothelioma)): 0.316
- combination Emax [13]: 1
- combination Emax [15]: 0.979
- combination Emax [16]: 0.926
- combination Emax [17]: 0.895
